Tests used:
Human recombinant MMP-13 = target: T1, Human recombinant MMP-13 (Homo sapiens, UniProt P45452); test: In vitro MMP inhibition analysis (fluorogenic peptide substrate cleavage), Ki; format: biochemical; details: Table 2
T1 construct: made in house; host or cells: baculovirus / insect cells
In short: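 Baculovirus-expressed full-length MMP-13 proenzyme was purified on heparin-agarose and zinc-chelate columns, then APMA-activated. It cleaved 4 μM MCA/Dpa fluorogenic peptide in 100 mM Tris-HCl, 100 mM NaCl, 10 mM CaCl2, 0.05% Brij-23, pH 7.5, for 1 h at room temperature (ex 330/em 420 nm). Ki came from Morrison-equation fits with substrate ≤Km, uncorrected.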

Human recombinant MMP-14 = target: T2, Human recombinant MMP-14 (Homo sapiens, UniProt P50281); test: as above; format: biochemical; details: Table 2
T2 construct: The catalytic domain enzyme was expressed in E. coli inclusion bodies, solubilized in urea; made in house
In short: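 Refolded catalytic domain of MMP-14 expressed in E. coli, activated with APMA or trypsin, incubated 1 h at room temperature with 4 μM MCA-peptide substrate in Tris buffer pH 7.5 with CaCl2. Cleavage rate followed by fluorescence (ex 330/em 420 nm). Ki from Morrison-equation fit; substrate at or below Km, so no substrate correction.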

SMILES | Ki (Human recombinant MMP-13) | Ki (Human recombinant MMP-14)
O=C(NO)C1(S(=O)(=O)c2ccc(-c3ccc(CCO)cc3)cc2)CCOCC1 [Example 98] | 0.147 nM | 52.6 nM
CC(C)CCc1ccc(-c2ccc(S(=O)(=O)C3(C(=O)NO)CCOCC3)cc2)nc1 [Example 99] | 0.052 nM | 421 nM
CCCCCc1ccc(-c2ccc(S(=O)(=O)C3(C(=O)NO)CCOCC3)cc2)c(F)c1 [Example 101] | 0.4 nM | 929 nM
COc1ccc(-c2ccc(S(=O)(=O)C3(C(=O)NO)CCOCC3)cc2)cc1F [Example 102] | 0.075 nM | 11.1 nM
CC(C)Cc1ccc(-c2ccc(S(=O)(=O)C3(C(=O)NO)CCOCC3)cc2)nc1 [Example 103] | 0.117 nM | 342 nM
CCN1CCC(C(=O)NO)(S(=O)(=O)c2ccc(-c3ccc(OCCOC)c(F)c3)cc2)CC1 [Example 110] | 0.144 nM | 1850 nM
CCN1CCC(C(=O)NO)(S(=O)(=O)c2ccc(-c3ccc(OCCOC)cc3)cc2)CC1 [Example 111] | 0.066 nM | 1790 nM
COCCOc1ccc(-c2ccc(S(=O)(=O)C3(C(=O)NO)CCN(C4CC4)CC3)cc2)cc1 [Example 113] | 0.031 nM | 499 nM
CCOCCOc1ccc(-c2ccc(S(=O)(=O)C3(C(=O)NO)CCN(CCOC)CC3)cc2)cc1 [Example 117] | 0.037 nM | 1110 nM

More lines, in order of falling Ki (Human recombinant MMP-13), values ahead:

Ki (Human recombinant MMP-13) | Ki (Human recombinant MMP-14) | SMILES
9.4 nM | > 10000 nM | COC(C)CCOc1ccc(-c2ccc(S(=O)(=O)C3(C(=O)NO)CCOCC3)cc2)cc1C(F)(F)F (centres unmarked) [Example 100]
3.67 nM | 1730 nM | CCCCc1nc(-c2ccc(S(=O)(=O)C3(C(=O)NO)CCOCC3)cc2)no1 [Example 105]
2.25 nM | 2280 nM | COCCN1CCC(C(=O)NO)(S(=O)(=O)c2ccc(-c3ccc(OCCN4CCCC4)cc3)cc2)CC1 [Example 72]
1.73 nM | 224 nM | O=C(NO)C1(S(=O)(=O)c2ccc(-c3cnccn3)cc2)CCOCC1 [Example 71]
0.199 nM | 744 nM | CC(C)CCOc1ccc(-c2ccc(S(=O)(=O)C3(C(=O)NO)CCOCC3)cc2)cc1 [Example 108]
0.058 nM | 681 nM | COCCOc1ccc(-c2ccc(S(=O)(=O)C3(C(=O)NO)CCN(C4CC4)CC3)cc2)cc1F [Example 112]
0.05 nM | 2930 nM | CCOCCOc1ccc(-c2ccc(S(=O)(=O)C3(C(=O)NO)CCN(CC)CC3)cc2)cc1 [Example 116]
0.042 nM | 585 nM | COCCOc1ccc(-c2ccc(S(=O)(=O)C3(C(=O)NO)CCN(CCOC)CC3)cc2)cc1F [Example 114]
0.032 nM | 247 nM | O=C(NO)C1(S(=O)(=O)c2ccc(-c3ccc(-c4ccccc4)cc3)cc2)CCOCC1 [Example 104]
0.025 nM | 530 nM | COCCOc1ccc(-c2ccc(S(=O)(=O)C3(C(=O)NO)CCN(CCOC)CC3)cc2)cc1 [Example 115]

Source: patent US20060074243A1, “Hydroxamic acid and amide compounds and their use as protease inhibitors” (Pharmacia Corporation, priority 2002, published 2006)
